Source: patent US20240067651A1 (Biohaven Therapeutics Ltd., priority 2019, published 2024)
Where two headings read alike, the source gives them in different places. Each block holds one molecule with its values, some of them ahead of it.

Assays:
[1] = Stability in Simulated Gastric Fluid (SGF); assay type: in vitro ADME; parameters: key: % parent compound remaining relative to 0-minute sample
How it was run: (§1)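 Each compound is spiked to a final 2 μg/mL into SGF with pepsin (pH 1.2) and into SIF with pancreatin (pH 6.8). Samples shake at 37° C, aliquots are taken between 0 and 60 minutes, precipitated with acetonitrile and analysed by LC-MS/MS. Degradation half-life is derived from the natural-log plot where time points allow.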

[2] = Stability in Simulated Intestinal Fluid (SIF); assay type: in vitro ADME; parameters: key: % parent compound remaining relative to 0-minute sample
How it was run: as §1

Plasma Stability = assay type: in vitro ADME, human
How it was run: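 Parent compound quantified by LC-MS/MS after acetonitrile precipitation, reported as percent of control remaining (triplicate). Incubation: 1 hour, 37° C, fresh human plasma, compound at 1 μM.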

Caco-2 monolayer = assay: Caco-2 Permeability Assay; assay type: in vitro ADME, human
How it was run: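 Bidirectional transport at 37 °C for 90 min, 10 μM donor concentration, with or without Pgp inhibitor, across 21-day Caco-2 monolayers with TEER >600 […] in HEPES-buffered HBSS, pH 7.4. LC-MS/MS of donor and receiver samples gives Papp, B→A/A→B efflux ratio and mass recovery.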

[3] = % @ 1 h (remaining) in simulated gastric fluid
[4] = % @ 1 h (remaining) in simulated intestinal fluid
[5] = % @ 1 h (remaining) in human plasma
[6] = % remaining at 1 h in human plasma, the 15th table
[7] = Caco-2 monolayer, the 15th table
[8] = bare number, unit or time not given, the 15th table Examples 204-207
[9] = simulated gastric fluid, remaining at 1 h
[10] = simulated intestinal fluid, remaining at 1 h

SGF ([1]; % remaining at 1 h in simulated gastric fluid): 84% remaining | SIF ([2]; % remaining at 1 h in simulated intestinal fluid): 21% remaining | human Plasma stability (Plasma Stability; % remaining at 1 h in human plasma): 1% remaining | Caco-2 Papp (Caco-2 monolayer; Caco-2 monolayer): 12.1 ×10⁻⁶ cm/s
Structure (SMILES): CC(C)OCCn1c(=S)[nH]c(=O)c2c1ccn2COC(=O)[C@@H]1CCN(C(=O)OC(C)(C)C)C1 [Example 129, 1-tert-butyl 3-{4-oxo-1-[2-(propan-2-yloxy)ethyl]-2-sulfanylidene-1H,2H,3H,4H,5H-pyrrolo[3,2-d]pyrimidin-5-yl} methyl (3R)-pyrrolidine-1,3-dicarboxylate]

Structure (SMILES): CCCCN(C)C(=O)OCSc1nc(=O)c2c(ccn2COC(=O)N(C)CCCC)n1CCOC(C)C [Example 162, {2-[{{[butyl(methyl)carba-moyl]oxy}methyl)sulfanyl]-4-oxo-1-[2-(propan-2-yloxy)ethyl]-1H,4H,5H-pyrrolo[3,2-d]pyrimidin-5-yl}methyl N-butyl-N-methylcarbamate]
SGF [1, 3]: 98% @ 1 h | SIF [2, 4]: 96% @ 1 h | human Plasma stability (Plasma Stability; [5]): 96% @ 1 h | Caco-2 Papp (Caco-2 monolayer; Caco-2 monolayer): 28.7 ×10⁻⁶ cm/s

Structure (SMILES): CCN(C)C(=O)OCSc1nc(=O)c2c(ccn2COC(=O)N(C)CC)n1CCOC(C)C.O=C(O)C(F)(F)F [Example 169, trifluoroacetic acid {2-[{{[ethyl(methyl)carba-moyl]oxy}methyl)sulfanyl]-4-oxo-1-[2-(propan-2-yloxy)ethyl]-1H,4H,5H-pyrrolo[3,2-d]pyrimidin-5-yl}methyl N-ethyl-N-methylcarbamate]
SGF [1, 3]: 99% @ 1 h | SIF [2, 4]: 81% @ 1 h | human Plasma stability (Plasma Stability; [5]): 89% @ 1 h | Caco-2 Papp (Caco-2 monolayer; Caco-2 monolayer): 10.9 ×10⁻⁶ cm/s

Structure (SMILES): CC(C)OCCn1c(SCOC(=O)N(C)Cc2ccccc2)nc(=O)c2c1ccn2COC(=O)N(C)Cc1ccccc1.O=C(O)C(F)(F)F [Example 174, trifluoroacetic acid {2-[{{[benzyl(methyl)carba-moyl]oxy}methyl)sulfanyl]-4-oxo-1-[2-(propan-2-yloxy)ethyl]-1H,4H,5H-pyrrolo[3,2-d]pyrimidin-5-yl}methyl N-benzyl-N-methylcarbamate]
SGF [1, 3]: 99% @ 1 h | SIF [2, 4]: 99% @ 1 h | human Plasma stability (Plasma Stability; [5]): 99% @ 1 h | Caco-2 Papp (Caco-2 monolayer; Caco-2 monolayer): 30.4 ×10⁻⁶ cm/s

SGF ([1]; % remaining at 1 h in simulated gastric fluid, the 15th table): 98% remaining | SIF ([2]; % remaining at 1 h in simulated intestinal fluid, the 15th table): 55% remaining | human Plasma stability (Plasma Stability; [6]): 86% remaining | Caco-2 Papp (nm/s) (Caco-2 monolayer; [7]): unstable
Structure (SMILES): CC(C)OCCn1c(=S)[nH]c(=O)c2c1ccn2CO [Example 197]

SGF [1, 8]: 90 | SIF [2, 8]: 29 | human Plasma stability (Plasma Stability; [6]): 92% remaining | Caco-2 Papp (Caco-2 monolayer; [7]): 0.267 ×10⁻⁶ cm/s
Structure (SMILES): CCCCCCCCOC(=O)OCSc1nc(=O)c2c(ccn2COC(=O)OCCCCCCCC)n1CCOC(C)C [Example 207, octyl {2-[{{[(octyloxy)carbon-yl]oxy}methyl)sulfanyl]-4-oxo-1-[2-(propan-2-yloxy)ethyl]-1H,4H,5H-pyrrolo[3,2-d]pyrimidin-5-yl} methyl carbonate]

SGF ([1]; simulated gastric fluid, at 1 h): 95% remaining | SIF ([2]; simulated intestinal fluid, at 1 h): 94% remaining | human Plasma stability (Plasma Stability; human plasma, at 1 h): 88% remaining | Caco-2 Papp (Caco-2 monolayer; Caco-2 monolayer): 8.53 ×10⁻⁶ cm/s
Structure (SMILES): COc1ccc(N(C)C(=O)OCSc2nc(=O)c3[nH]ccc3n2CCOC(C)C)cc1 [Example 254]

Structure (SMILES): CC(C)OCCn1c(SCOC(=O)[C@H](N)Cc2ccccc2)nc(=O)c2c1ccn2COC(=O)[C@H](N)Cc1ccccc1.O=C(O)C(F)(F)F.O=C(O)C(F)(F)F [Example 312, bis(trifluoroacetic acid) {[5-({[(2R)-2-amino-3-phenylpropanoyl]oxy}methyl)-4-oxo-1-[2-(propan-2-yloxy)ethyl]-1H,4H,5H-pyrrolo[3,2-d]pyrimidin-2-yl]sulfanyl} methyl (2R)-2-amino-3-phenylpropanoate]
SGF ([1]; % remaining @ 1 h): 99% @ 1 h | SIF ([2]; % remaining @ 1 h): 29% @ 1 h | human Plasma stability (Plasma Stability; % remaining @ 1 h): 24% @ 1 h | Caco-2 Papp (Caco-2 monolayer; Caco-2): >0.0994 ×10⁻⁶ cm/s

Structure (SMILES): CC(C)C[C@H](NC(=O)OC(C)(C)C)C(=O)OCSc1nc(=O)c2c(ccn2COC(=O)[C@H](CC(C)C)NC(=O)OC(C)(C)C)n1CCOC(C)C [Example 315, {[5-({[(2S)-2-{[ (tert-butoxy)carbonyl]amino}-4-methylpentanoyl]oxy}methyl)-4-oxo-1-[2-(propan-2-yloxy)ethyl]-1H,4H,5H-pyrrolo[3,2-d]pyrimidin-2-yl]sulfanyl} methyl (2S)-2-{[(tert-butoxy)carbonyl]amino}-4-methylpentanoate]
SGF ([1]; % remaining @ 1 h): 78%@ 1 h | SIF ([2]; % remaining @ 1 h): 5%@ 1 h | human Plasma stability (Plasma Stability; % remaining @ 1 h): 7%@ 1 h | Caco-2 Papp (Caco-2 monolayer; Caco-2): 14.1 ×10⁻⁶ cm/s

Structure (SMILES): CC(C)OCCn1c(SCOC(=O)CCCCOC(=O)CNC(=O)OC(C)(C)C)nc(=O)c2c1ccn2COC(=O)CCCCOC(=O)CNC(=O)OC(C)(C)C [Example 329, ({5-[{{5-[(2-{[(tert-butoxy)carbonyl]amino}acetyl)oxy]pentanoyl}oxy)methyl]-4-oxo-1-[2-(propan-2-yloxy)ethyl]-1H,4H,5H-pyrrolo[3,2-d]pyrimidin-2-yl}sulfanyl)methyl 5-[(2-{[(tert-butoxy)carbonyl]amino}acetyl)oxy] pentanoate]
SGF ([1]; % remaining @ 1 h): 95% @ 1 h | SIF ([2]; % remaining @ 1 h): 35% @ 1 h | human Plasma stability (Plasma Stability; % remaining @ 1 h): 1% @ 1 h | Caco-2 Papp (Caco-2 monolayer): 5.96 ×10⁻⁶ cm/s

Structure (SMILES): CC(C)C[C@H](NC(=O)OC(C)(C)C)C(=O)OCCCCC(=O)OCn1c(=O)c2c(ccn2COC(=O)CCCCOC(=O)[C@H](CC(C)C)NC(=O)OC(C)(C)C)n(CCOC(C)C)c1=S [Example 344, 5-[(3-{[(5-{[(2S)-2-{[(tert-butoxy)carbonyl]amino}-4-methylpentanoyl]oxy}penta-noyl)oxy]methyl}-4-oxo-1-[2-(propan-2-yloxy)ethyl]-2-sulfanylidene-1H,2H,3H,4H,5H-pyrrolo[3,2-d]pyrimidin-5-yl)methoxy]-5-oxopentyl (2S)-2-{[(tert-butoxy)carbonyl]amino}-4-methylpentanoate]
SGF ([1]; % remaining @ 1 h): 100% remaining | SIF ([2]; % remaining @ 1 h): 26% remaining | human Plasma stability (Plasma Stability; % remaining @ 1 h): 28% remaining | Caco-2 Papp (Caco-2 monolayer; Caco-2): 2.46 ×10⁻⁶ cm/s

Structure (SMILES): CC(C)C[C@@H](NC(=O)OC(C)(C)C)C(=O)OCCCCC(=O)OCn1c(=O)c2c(ccn2COC(=O)CCCCOC(=O)[C@@H](CC(C)C)NC(=O)OC(C)(C)C)n(CCOC(C)C)c1=S [Example 349, 5-[(3-{[(5-{[(2R)-2-{[(tert-butoxy)carbonyl]amino}-4-methylpentanoyl]oxy}penta-noyl)oxy]methyl}-4-oxo-1-[2-(propan-2-yloxy)ethyl]-2-sulfanylidene-1H,2H,3H,4H,5H-pyrrolo[3,2-d]pyrimidin-5-yl)methoxy]-5-oxopentyl (2R)-2-{[(tert-butoxy)carbonyl]amino}-4-methylpentanoate]
SGF [1, 9]: 99% remaining | SIF [2, 10]: 8% remaining | human Plasma stability (Plasma Stability; human plasma, remaining at 1 h): 6% remaining | Caco-2 Papp (Caco-2 monolayer; Caco-2 monolayer): 4.99 ×10⁻⁶ cm/s

Structure (SMILES): CC(C)OCCn1c(SCOC(=O)CCCOC(=O)[C@H](NC(=O)OC(C)(C)C)C(C)C)nc(=O)c2c1ccn2COC(=O)CCCOC(=O)[C@H](NC(=O)OC(C)(C)C)C(C)C [Example 357, 4-{[2-({[(4-{[(2R)-2-{[(tert-butoxy)carbonyl]amino}-3-methylbutanoyl]oxy}buta-noyl)oxy]methyl}sulfanyl)-4-oxo-1-[2-(propan-2-yloxy)ethyl]-1H,4H,5H-pyrrolo[3,2-d]pyrimidin-5-yl]methoxy}-4-oxobutyl (2R)-2-{[(tert-butoxy)carbonyl]amino}-3-methylbutanoate]
SGF [1, 9]: 98% remaining | SIF [2, 10]: 14% remaining | human Plasma stability (Plasma Stability; human plasma, remaining at 1 h): 5% remaining | Caco-2 Papp (Caco-2 monolayer; Caco-2 monolayer): 1.5 ×10⁻⁶ cm/s

Structure (SMILES): CC(C)OCCn1c(=S)n(COC(=O)CCCOC(=O)[C@H](NC(=O)OC(C)(C)C)C(C)C)c(=O)c2c1ccn2COC(=O)CCCOC(=O)[C@H](NC(=O)OC(C)(C)C)C(C)C [Example 359, (((1-(2-isopropoxyethyl)-4-oxo-2-thioxo-1,4-dihydro-3H-pyrrolo[3,2-d]pyrimidine-3,5(2H)-diyl)bis(methylene))bis(oxy))bis(4-oxobutane-4,1-diyl) (2R,2′R)-bis(2-((tert-butoxycarbonyl)amino)-3-methylbutanoate)]
SGF [1, 9]: 99% remaining | SIF [2, 10]: 41% remaining | human Plasma stability (Plasma Stability; human plasma, remaining at 1 h): 8% remaining | Caco-2 Papp (Caco-2 monolayer; Caco-2 monolayer): <0.297 ×10⁻⁶ cm/s

Structure (SMILES): CC(C)OCCn1c(=S)n(COC(=O)CCCOC(=O)[C@H](N)C(C)C)c(=O)c2c1ccn2COC(=O)CCCOC(=O)[C@H](N)C(C)C.O=C(O)C(F)(F)F.O=C(O)C(F)(F)F [Example 360, bis(trifluoroacetic acid) 4-[(3-{[(4-{[(2R)-2-amino-3-methylbutanoyl]oxy}buta-noyl)oxy]methyl}-4-oxo-1-[2-(propan-2-yloxy)ethyl]-2-sulfanylidene-1H,2H,3H,4H,5H-pyrrolo[3,2-d]pyrimidin-5-yl)methoxy]-4-oxobutyl (2R)-2-amino-3-methylbutanoate]
SGF [1, 9]: 46% remaining | SIF [2, 10]: 56% remaining | human Plasma stability (Plasma Stability; human plasma, remaining at 1 h): 3% remaining | Caco-2 Papp (Caco-2 monolayer; Caco-2 monolayer): <0.628 ×10⁻⁶ cm/s
